# Patent EP0324574B1, “Immunomodulating bryostatins” (priority 1988, dated 1989)
# What was measured:
# HL-60 cell line = conditions: cited from earlier work
# CTL (clone BM10-37) = assay: BLT-Esterase secretion assay in CTL clone; type: cell-based, murine
# Procedure: (§1) This assay was performed as described in Takayama, H., et al. 1987. Antigen receptor triggered secretion of a trypsin-type esterase from cytotoxic T-lymphocytes. J. Immunol. 138:566. Briefly, effector cells were resuspended in the incubation media and incubated in triplicate in a 96-well plate (Immulon) at a concentration of 10⁵ cells per 100 µl. Phorbol myristate acetate ("PMA"), bryostatin 1 and bryostatin 2 were added at a final concentration of 10 ng/ml, the Ca⁺⁺ ionophore A23187 (free acid, Sigma C7522) was added at a final concentration of 0.5 µ g/ml. Total volume per well was adjusted to 200 µl. After 4 hours of incubation (37°C, 5% CO₂) the plates were spun (1 min., 200 xG) and 50 µl of the supernatant was harvested. Total BLT-E content was determined by solubilizing 10⁵ effector cells with 0.1% Triton X-100 in PBS.
# Using a newly developed BLT-esterase secretion assay (See: Takayama, H., et al, supra). the ability of bryostatins 1 and 2 to activate cytolytic T-cells and to trigger the exocytosis of granules from CTL was tested. […] The combination of bryostatin and Ca⁺⁺-ionophore, however, greatly enhances the activation of CTL and induces significant secretion of granule located enzyme. […] However, when equimolar concentrations of PMA and bryostatin are used, the amount of secreted BLT-Esterase was similar in both combinations.
# 10⁵ CTL (clone BM10-37) was incubated in a 96-well plate and stimulated by the addition of a PMA (10ng/ml) and A23187 (0.5 µg/ml). Specific BLT-E secretion was measured as described above.
# [1] = tested on: in vivo primed spleen cells; assay: generation of cytotoxicity in in vivo primed spleen cells (3-day culture, 51Cr-release assay); type: cell-based, B10 mice; conditions: for development of CTL: 0.78nM present during incubation with 2 U/ml of rIL-2; for Index of Cell Recovery after incubation / Lytic Units Per 10⁷ cells: Media + rIL-2 (2U/ml) + 0.5 ng/ml PK-C activator, 3 days of incubation; for Lytic Units Per 10⁷ cells: P815 target cells
# Procedure: (§2) Effector cells and ⁵¹Cr-labeled target cells were mixed and incubated in triplicate in a 96-well plate at different E/T ratios as described in Grabstein, K. 1980. Cell-mediated cytolytic responses. In Selected Methods in Cellular Immunology, B. B. Mishel and S. M. Shiigi, eds. (San Francisco, Freeman), pp. 124. The target cell number was 10⁴ cells per well when ⁵¹Cr-release assay was performed with the cytolytic T-cell clones. 5x10³ target cells per well were used when spleen cells and lymph node T-cells were studied as effectors. PMA, bryostatin 1 and bryostatin 2 were added at a final concentration ranging from 0.5 ng/ml to 100 ng/ml. Lectin- dependent cytotoxicity assay was performed by adding 10 µg/ml Con A to the mixture of CTL and ⁵¹Cr-labeled target cells. After incubation, the 96-well plate was centrifuged (1 min, 800 rpm, 4|C), all supernatants were harvested, radioactivity in the samples was counted and the mean values for each triplicate were determined. Percent of specific ⁵¹Cr release was calculated as 100X (a-b)/(t-b), where a is ⁵¹Cr release in the presence of CTL, b is spontaneous release from labeled target cells in the absence of CTL and t is the total number of cpm in the target cells.
# B10 mice were immunized in vivo with 5-7.5x10⁶ irradiated P815 (H-2^d) cells. After 2-3 weeks animals were sacrificed and spleen cells were harvested. Red blood cells were lysed with hypotonic salt solution. Cells were incubated with 100 µl of 1/10 diluted M5/114.15.2 mAb containing ascites per 50x10⁶ cells. Following 30 min at room temperature, cells were washed and 100 µl of MAR 18.5 containing cell supernatant and 100 µl of rabbit complement per 50x10⁶ cells were added. Incubation at 37°C was allowed to proceed for 45 min., dead cells were removed by Hypaque-Ficoll centrifugation, washed and then incubated for three days in RPMI media/10% FCS with or without addition of IL-2, PMA or bryostatin as specified in legends of the drawing. Cytotoxicity against Ag-bearing target cells was measured in a ⁵¹Cr-release assay using P815 mastocytoma cells as targets.
# In vivo primed B10 spleen cells were prepared as described above. After a 3-day culture either in the presence of either rIL-2 or rIL-2 plus protein kinase C activator, cytotoxicity was measured in a ⁵¹Cr release assay at the E/T ratios shown in FIG. 2 using 10⁴ P815 target cells/well. Results of cytotoxicity assay are shown for (A) cells cultured with rIL-2 alone (0 U/ml, 2 U/ml, 10 U/ml, 20 U/ml); (B) cells cultured with rIL-2 plus 0.5 ng/ml bryostatin 1; (C) cells cultured with rIL-2 plus 0.5 ng/ml bryostatin 2; and (D) cells cultured with rIL-2 plus 0.5 ng/ml PMA. […]
# small resting T-cells [2] = assay: development of cytotoxicity in small resting T-cells (lectin mediated 51Cr-release assay); type: cell-based, BALB/c mice
# Procedure: as §2
# (§3) Mesenteric lymph nodes were harvested from virus-free BALB/c mice 8-12 weeks of age. After two nylon wool column passages, Ia positive cells were subsequently lysed with the anti-Ia monoclonal antibody M5/114 plus Low-Tox-M rabbit complement as described above. Small dense resting T-cells were then separated by a modified discontinuous Percoll gradient procedure (See: Defranco, et al. 1982. Frequency of B-lymphocytes responsive to antiimmunoglobulin. J. Exp. Med. 155:1523.). Purified T-cells which were harvested in the 66-70% density band were considered to be small resting T-cells.
# (§4) Small resting T-cells were purified from Balb/c mesenteric lymph nodes as described above. Purified cells were cultured for 3 days at a cell concentration of 10⁶ cells/ml either in media alone or in media plus different additions (rIL-2,100 U/ml; BSF-1, 2000 U/ml; bryostatin 1 or 2, 0.5 ng/ml). Cytotoxicity was measured in a 6 hour lectin mediated (Con A, 10 µg/ml) ⁵¹Cr-release assay. Results are shown for an E/T ratio of 100/l. For the determination of BLT-E content, 10⁶ cells of each of tested culture conditions were resuspended in 100 µl of media and solubilized with 1% Triton® X-100. Fifty l of cell suspension was used for measurement of BLT-esterase content as described above. Tested reagents when added alone to the cell cultures neither increased cellular BLT-esterase content nor induced cytotoxicity as shown in FIG. 7.
# small resting T-cells [3] = assay: BLT-E content of small resting T-cells after 3-day culture; type: cell-based, BALB/c mice; conditions: for expression of BLT-E activity in resting T-cells: added alone; for amount of BLT-E on a per cell basis: in combination with IL-4
# Procedure: as §1, §3, §4
# tumor promoters = assay: antagonism of tumor promoters
# P388 in vitro cell line = conditions: against the P388 in vitro cell line; cited from earlier work
# [4] = tested on: cytotoxic T-cell clone 2C; assay: Ag-nonspecific cytotoxicity of CTL clone 2C against EL-4 target cells (51Cr-release); type: cell-based, murine; conditions: for lysis of EL-4 cells by CTL clone 2C: added to cell mixture, different E/T ratios
# Procedure: as §2
# No ⁵¹Cr-release was observed when ⁵¹Cr-labeled EL-4 cells ([…]) were mixed with the cytotoxic T-cell clone 2C (anti-H-2L^d) at different E/T ratios.
# CTL 2C clone were incubated 4 hours with ⁵¹Cr-labeled syngeneic EL4 target cells at different E/T ratios in the presence of different concentrations of PMA or bryostatin 2.
# [5] = tested on: murine P388 lymphocyte leukemia (PS) system; conditions: 10-70 µg/kg injection dose levels; cited from earlier work
# [6] = tested on: M531 murine ovary sarcoma system; parameters: dose or concentration left out as unconfirmed; conditions: cited from earlier work
# CTL OE4 cells = assay: Ag-specific cytotoxicity of CTL OE4 against P815 cells (51Cr-release); type: cell-based, murine; conditions: 10 ng/ml, P815 cells with CTL OE4 at various E/T ratios
# Procedure: Effector cells and ⁵¹Cr-labeled target cells were mixed and incubated in triplicate in a 96-well plate at different E/T ratios as described in Grabstein, K. 1980. Cell-mediated cytolytic responses. In Selected Methods in Cellular Immunology, B. B. Mishel and S. M. Shiigi, eds. (San Francisco, Freeman), pp. 124. The target cell number was 10⁴ cells per well when ⁵¹Cr-release assay was performed with the cytolytic T-cell clones. 5x10³ target cells per well were used when spleen cells and lymph node T-cells were studied as effectors. PMA, bryostatin 1 and bryostatin 2 were added at a final concentration ranging from 0.5 ng/ml to 100 ng/ml. Lectin- dependent cytotoxicity assay was performed by adding 10 µg/ml Con A to the mixture of CTL and ⁵¹Cr-labeled target cells. After incubation, the 96-well plate was centrifuged (1 min, 800 rpm, 4|C), all supernatants were harvested, radioactivity in the samples was counted and the mean values for each triplicate were determined. Percent of specific ⁵¹Cr release was calculated as 100X (a-b)/(t-b), where a is ⁵¹Cr release in the presence of CTL, b is spontaneous release from labeled target cells in the absence of CTL and t is the total number of cpm in the target cells. […]
# OE4 CXTL cells were incubated with 10⁴ Cr labeled P815-cells at different E/T ratios and a ⁵¹Cr-release was measured after 4 hours incubation. […]
# [7] = 10 ng/ml in combination with Ca⁺⁺ ionophore A23187 0.5 µg/ml
# [8] = bryostatin and BSF-1 added together
Compound,induction of differentiation of the HL-60 cell line (HL-60 cell line),BLT-E secretion (CTL (clone BM10-37); [7]),"BLT-E secretion (CTL (clone BM10-37); added alone, 10 ng/ml)",development of CTL [1],Index of Cell Recovery after incubation [1],Lytic Units Per 10⁷ cells [1],degree of cytotoxicity obtained with high concentrations of rIL-2 [1],induction of cytotoxicity in small resting T-cells compared to PMA (small resting T-cells [2]),CTL development in resting T-cells (small resting T-cells [2]; added alone),CTL development in resting T-cells (small resting T-cells [2]; [8]),expression of BLT-E activity in resting T-cells (small resting T-cells [3]),amount of BLT-E on a per cell basis (small resting T-cells [3]),antagonism of tumor promoters (tumor promoters),ED₅₀ (P388 in vitro cell line),lysis of EL-4 cells by CTL clone 2C [4],life extension [5],life extension [6],Ag-specific ⁵¹Cr-release (CTL OE4 cells),"level of ⁵¹Cr-release ([4]; 10 ng/ml, compared to same concentration of PMA or bryostatin 1, all E/T ratios (data not shown))","concentration causing maximal activity (lysis of EL-4 cells) ([4]; plateau, 10-fold higher concentration gave no higher cytotoxicity)"
"CCCCCCCCCCCCCC(=O)O[C@@H]1[C@@H](C)[C@@]2(O)[C@@H](C=C(CO)C[C@]3(O)C(=O)C(C)=C[C@@H]23)[C@@H]2C(C)(C)[C@]12OC(C)=O [PMA, 4 β-phorbol-12-myristate 13-acetate, reference compound]",can be induced,greatly enhanced,slight BLT-Esterase secretion,equal in magnitude to that induced by 20 U/ml of IL-2,1.3,71 Lytic Units Per 10⁷ cells,enhanced,,,,,,,,,,,,,
CCC/C=C/C=C/C(=O)O[C@H]1/C(=C/C(=O)OC)C[C@H]2C[C@H]([C@@H](C)O)OC(=O)C[C@H](O)C[C@@H]3C[C@H](OC(C)=O)C(C)(C)[C@](O)(C[C@@H]4C/C(=C/C(=O)OC)C[C@H](/C=C/C(C)(C)[C@]1(O)O2)O4)O3 [bryostatin 1],,slightly lower than that of PMA/Ca²⁺-ionophore,only a slight increase,,0.9,40 Lytic Units Per 10⁷ cells,enhanced,less effective than PMA,failed to induce CTL development,synergized,"Neither growth factors (IL-2, IL-4) nor bryostatin 1 and 2 alone induced expression",dramatically increased,antagonists of tumor promoters,0.89 µg/mL,caused the lysis of EL-4 cells in a dose dependent manner,52-96%,31-68%,slightly but consistently higher inhibition,,
bryostatin 2,,always less effective,only a slight increase,equal in magnitude to that induced by 20 U/ml of IL-2,1.0,70 Lytic Units Per 10⁷ cells,enhanced,consistently induced similar amounts of cytotoxicity,failed to induce CTL development,synergized,"Neither growth factors (IL-2, IL-4) nor bryostatin 1 and 2 alone induced expression",dramatically increased,antagonists of tumor promoters,,caused the lysis of EL-4 cells in a dose dependent manner,,,decreased,consistently lower,10 ng/mL
